Experimental data taken from patent US20160332971A1, “ARYLQUINOLINE, ARYLQUINOLONE AND ARYLTHIOQUINOLONE DERIVATIVES AND USE THEREOF TO TREAT CANCER” (UNIVERSITY OF KENTUCKY RESEARCH FOUNDATION, priority 2015, published 2016).

Experiments:
[1] = system: Par-4 secretion from mouse fibroblasts; assay: Par-4 secretion into conditioned medium, quantitative Western blot normalised to CollA1; type: cell-based; details: for Relative Levels of Par-4 Secretion by Arylquins Administered at 500 nM: 24 h, mouse fibroblasts, CM; for Par-4 secretory activity (in words): SAR discussion; for Par-4 secretory activity (in words) / Ratio of Par-4 Secretion by Arylquin 1 Relative to Vehicle: 500 nM
Method: Calibration curve developed using fixed amounts (0.05-5 ng) of recombinant TRX-Par-4. […] Therefore the concentration was 0.82 ng/40 μL or 540 pM, In the same fashion, calculation for Par-4 concentration using vehicle (v) was 280 pM.
Biological activity of 3-Arylquinolines. […] After 24 h exposure, the CM and lysates were subjected to quantitative Western blot analysis for Par-4 and collagen (CollA1).
Co-immunoprecipitation and Western blot analysis. Protein extracted from cell lysates was filtered, pre-cleared with 25 μL (bed volume) of protein G-Sepharose beads and immunoprecipitated with 1 μg of respective antibodies. The eluted proteins were resolved by SDS-PAGE, and subjected to Western blot analysis as described previously. Bensch, et al. Nature 1968, 218(5147):1176-1177.
Statistical analyses. All experiments were performed in triplicate to verify the reproducibility of the findings. […] Statistical analyses were carried out with Statistical Analysis System software (SAS Institute, Cary, N.C.) and P values were calculated using the Student t test.

[2] = target: hERG potassium channel (Homo sapiens, UniProt Q12809)
From the text: hERG Binding studies, An HEK-293 cell line stably expressing the hERG potassium channel (accession number U04270) referred to as hERG-HEK cells were received at passage 11 (P11) from Millipore (CYL3006, lot 2, Billerica, Mass.). [^3H]-Dofetilide (specific activity of 80 Ci/mmol; labeled on the N-methyl group) was obtained from American Radiolabeled Chemicals (St. Louis, Mo.). Other chemicals and solvents were obtained from Sigma-Aldrich (Milwaukee, Wis.). Polyethylenimine (PEI) was obtained from Fluka/Sigma-Aldrich (St. Louis, Mo.), and Minimium Essential Medium (MEM) with GlutaMAX™ and phenol red, MEM non-essential amino acids solution (NEAA, 100×), G418 disulfate salt solution, fetal bovine serum (FBS), 0.05% Trypsin-EDTA 1× with phenol red, and Hank's balanced salt solution (HBSS) were obtained from Life Technologies (Carlsbad, Calif.).
hERG-HEK Cell culture. hERG-FIEK Cells were cultured according to the protocol provided by Millipore. Cells were maintained in MEM (with glutamax and phenol red) supplemented with 10% […], 1% NEAA and […], and incubated at 37 ° C. in a humidified atmosphere with 5% CO2. Frozen aliquots of cells were transferred into T-75 cm^2 flasks and allowed to adhere for 4-8 h. The medium was replaced every 2 days. Passages were carried out at least 3 times after thawing at 6 day intervals. Cells were dissociated with trypsin/EDTA and seeded into new 150×25 mm dishes at 2-3×10^6 cells per dish and placed at 30° C., 5% CO2, for 40-48 h prior to membrane preparation. Membrane preparation occurred 6 days after the last passage (passage 20).
Membrane preparation. Cell membrane preparation was based on previous methods. See Herrmann, et al. J Mol Biol 1996, 264:933-953; Lavie, et al. J Org Chem 1965, 30(6):1774-1778; Chen, et al. A Practical Guide to Assay Development and High-throughput Screening in Drug Discovery, CRC Press Taylor and Francis Group, Boca Raton, Fla., 2010; Redfern, et al. Cardiovasc Res 2003, 58, 32-45. Cells were rinsed twice with HBSS at 37° C. and collected by scraping the dishes in 20 mL of ice-cold 0.32 M sucrose and homogenized on ice with a Teflon pestle using a Maximal Digital homogenizer (Fisher Scientific, Pittsburgh, Pa.) at 280 rpm for 30 sec. Homogenates were centrifuged at 300 g and 800 g for 4 min each at 4° C. Pellets were resuspended in 9 mL of ice-cold Milli-Q water and osmolarity restored by addition of 1 mL of 500 mM Tris buffer (pH 7.4) followed by suspension and centrifugation at 20,000 g for 30 min at 4° C. Pellets were homogenized in 2 mL assay buffer (50 mM Tris, 10 mM KCl, and 1 mM MgCl2, 4° C.) and aliquots of cell membrane suspensions were stored at −80° C. and thawed the day of the [^3H]-dofetilide binding assay. Protein content was determined prior to the assay using a Bradford protein assay with bovine albumin as the standard.
[^3H]-Dofetilide binding assay. [^3H]-Dofetilide binding assays using hERG-HEK293 cell membranes were based on previous methods. Redfern, et al. Cardiovasc Res 2003, 58, 32-45. Assays determining concentration-response were conducted in duplicate, and three independent assays were performed for each analog evaluated. […] Radioactivity was determined by liquid scintillation spectrometry using the Tri-Carb 2100-TR Liquid Scintillation Analyzer (Perkin-Elmer Life and Analytical Sciences) […]

Chain of hERG potassium channel (Q12809 whole entry): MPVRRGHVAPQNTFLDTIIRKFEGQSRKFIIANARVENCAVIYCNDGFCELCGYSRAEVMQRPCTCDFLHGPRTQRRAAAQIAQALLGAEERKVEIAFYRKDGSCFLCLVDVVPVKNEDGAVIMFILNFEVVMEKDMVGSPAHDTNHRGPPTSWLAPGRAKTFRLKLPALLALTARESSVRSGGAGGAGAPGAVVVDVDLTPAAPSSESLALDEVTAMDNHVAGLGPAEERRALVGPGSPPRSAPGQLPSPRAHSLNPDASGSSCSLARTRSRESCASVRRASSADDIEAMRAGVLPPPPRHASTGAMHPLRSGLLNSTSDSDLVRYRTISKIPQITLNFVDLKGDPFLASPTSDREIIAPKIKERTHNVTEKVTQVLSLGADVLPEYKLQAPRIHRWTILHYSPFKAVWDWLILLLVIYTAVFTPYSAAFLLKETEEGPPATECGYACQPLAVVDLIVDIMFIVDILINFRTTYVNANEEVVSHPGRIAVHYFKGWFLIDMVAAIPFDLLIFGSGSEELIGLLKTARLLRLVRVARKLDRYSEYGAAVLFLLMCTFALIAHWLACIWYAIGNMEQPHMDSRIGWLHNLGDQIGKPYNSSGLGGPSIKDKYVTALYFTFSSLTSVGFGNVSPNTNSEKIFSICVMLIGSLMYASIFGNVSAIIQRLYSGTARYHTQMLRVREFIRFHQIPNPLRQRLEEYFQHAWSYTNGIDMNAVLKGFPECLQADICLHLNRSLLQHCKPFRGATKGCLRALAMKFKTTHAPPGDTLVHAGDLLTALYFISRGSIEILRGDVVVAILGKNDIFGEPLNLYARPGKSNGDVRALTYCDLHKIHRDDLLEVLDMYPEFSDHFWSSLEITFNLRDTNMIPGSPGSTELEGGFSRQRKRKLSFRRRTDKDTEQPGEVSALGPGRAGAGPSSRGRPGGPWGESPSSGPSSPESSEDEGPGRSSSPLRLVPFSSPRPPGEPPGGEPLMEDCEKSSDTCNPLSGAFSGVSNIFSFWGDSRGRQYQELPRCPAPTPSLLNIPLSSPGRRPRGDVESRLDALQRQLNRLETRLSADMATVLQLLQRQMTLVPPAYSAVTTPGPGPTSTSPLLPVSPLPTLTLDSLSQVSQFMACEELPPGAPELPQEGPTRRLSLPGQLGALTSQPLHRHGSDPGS

Row | SMILES | Relative Levels of Par-4 Secretion by Arylquins Administered at 500 nM ([1]; Table 1) | Par-4 secretory activity (in words) [1] | IC50 [2] [µM] | Ratio of Par-4 Secretion by Arylquin 1 Relative to Vehicle ([1]; Table 2) | Relative Levels of Par-4 Secretion by Arylquins Administered at 500 nM ([1]; Table 2)
1 | CN(C)c1ccc2cc(-c3cccc(F)c3)c(N)nc2c1 [Arylquin 1d] | 66.8 ± 10.9 | weakly active | 1.59 ± 0.39 |  | 
2 | CN(C)c1ccc2cc(-c3ccc(F)cc3)c(N)nc2c1 [Arylquin 1f] | 12.3 ± 2.0 | weakly active | 30.2 ± 10.3 |  | 
3 | CN(C)c1ccc2cc(-c3ccccc3F)c(=S)[nH]c2c1 [Arylquin 10] |  | diminished Par-4 secretory activity relative to arylquinoline 1a | > 100 | 1.7 | 51.7 ± 4.9
4 | CN(C)c1ccc2cc(-c3ccccc3F)c(N3CCOCC3)nc2c1 [Arylquin 13a, 3-(2-Fluorophenyl)-NA-dimethyl-2-morpholinoquinolin-7-amine] |  | diminished activity to varying degrees | 23.3 ± 3.05 | 1.8 | 54.4 ± 2.8
5 | Nc1nc2ccccc2cc1-c1ccccc1F [Arylquin 15a] |  | decreased Par-4 secretory activity only slightly | 14.6 ± 5.82 | 2.8 | 82.1 ± 21.2
